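Test compounds were applied to cells in 96-well plates for 48 hours at 5 doses. The concentration for 50% growth inhibition is given as GI50. The concentration for full growth arrest is given as TGI.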
Legend:
Experiment in all cases: NCI-60 cell line screen, 48 h
786-0 renal = system: 786-0 renal
A498 renal = system: A498 renal
A549 NSCLC = system: A549 NSCLC
ACHN renal = system: ACHN renal
BT-549 breast = system: BT-549 breast
CAKI-1 renal = system: CAKI-1 renal
CCRF-CEM leukemia = system: CCRF-CEM leukemia
DU-145 prostate = system: DU-145 prostate
EKVX NSCLC = system: EKVX NSCLC
HCC-2998 colon = system: HCC-2998 colon
HCT-116 colon = system: HCT-116 colon
HCT-15 colon = system: HCT-15 colon
HOP-62 NSCLC = system: HOP-62 NSCLC
HOP-92 NSCLC = system: HOP-92 NSCLC
HS 578T breast = system: HS 578T breast
IGROV1 ovarian = system: IGROV1 ovarian
KM12 colon = system: KM12 colon
LOX IMVI melanoma = system: LOX IMVI melanoma
M14 melanoma = system: M14 melanoma
MALME-3M melanoma = system: MALME-3M melanoma
MDA-MB-231 breast = system: MDA-MB-231 breast
MDA-MB-435 = system: MDA-MB-435
MDA-MB-468 breast = system: MDA-MB-468 breast
MOLT-4 leukemia = system: MOLT-4 leukemia
NCI-H226 lung = system: NCI-H226 lung
NCI-H23 lung = system: NCI-H23 lung
NCI-H460 lung = system: NCI-H460 lung
NCI-H522 lung = system: NCI-H522 lung
NCI/ADR-RES ovarian = system: NCI/ADR-RES ovarian
OVCAR-3 ovarian = system: OVCAR-3 ovarian
OVCAR-4 ovarian = system: OVCAR-4 ovarian
OVCAR-5 ovarian = system: OVCAR-5 ovarian
OVCAR-8 ovarian = system: OVCAR-8 ovarian
PC-3 prostate = system: PC-3 prostate
RPMI-8226 leukemia = system: RPMI-8226 leukemia
RXF 393 renal = system: RXF 393 renal
SF-268 CNS = system: SF-268 CNS
SF-295 CNS = system: SF-295 CNS
SF-539 CNS = system: SF-539 CNS
SK-MEL-2 melanoma = system: SK-MEL-2 melanoma
SK-MEL-28 melanoma = system: SK-MEL-28 melanoma
SK-MEL-5 melanoma = system: SK-MEL-5 melanoma
SK-OV-3 ovarian = system: SK-OV-3 ovarian
SN12C renal = system: SN12C renal
SNB-19 CNS = system: SNB-19 CNS
SNB-75 CNS = system: SNB-75 CNS
T-47D breast = system: T-47D breast
TK-10 renal = system: TK-10 renal
U251 CNS = system: U251 CNS
UACC-257 melanoma = system: UACC-257 melanoma
UACC-62 melanoma = system: UACC-62 melanoma
UO-31 renal = system: UO-31 renal

For `COc1ccc2[nH]cc(-c3cc(N)n4nc(-c5c[nH]c6ccccc56)cc4n3)c2c1`, the GI50 (786-0 renal) was 1.57 µM, the TGI (786-0 renal) was 3 µM and the GI50 (A498 renal) was 11.4 µM. It also gave a TGI (A498 renal) of 24.4 µM, a GI50 (A549 NSCLC) of 3.14 µM and a TGI (A549 NSCLC) of 13.9 µM. It also gave a GI50 (ACHN renal) of 2.62 µM, a TGI (ACHN renal) of 6.99 µM and a GI50 (BT-549 breast) of 13.3 µM. It also gave a TGI (BT-549 breast) of 26.1 µM, a GI50 (CAKI-1 renal) of 2.32 µM and a TGI (CAKI-1 renal) of 6.44 µM. It also gave a GI50 (CCRF-CEM leukemia) of 2.6 µM, a TGI (CCRF-CEM leukemia) of 6.46 µM and a GI50 (DU-145 prostate) of 5.19 µM. The TGI (DU-145 prostate) was 19.3 µM, the GI50 (EKVX NSCLC) was 3.93 µM and the TGI (EKVX NSCLC) was 15.9 µM. It also gave a GI50 (HCC-2998 colon) of 1.77 µM, a TGI (HCC-2998 colon) of 3.38 µM and a GI50 (HCT-116 colon) of 1.75 µM. For the same compound, the TGI (HCT-116 colon) was 3.12 µM, the GI50 (HCT-15 colon) was 1.66 µM and the TGI (HCT-15 colon) was 3.33 µM. It also gave a GI50 (HOP-62 NSCLC) of 3.14 µM, a TGI (HOP-62 NSCLC) of 7.88 µM and a GI50 (HOP-92 NSCLC) of 3.04 µM. For the same compound, the TGI (HOP-92 NSCLC) was 11.9 µM, the GI50 (HS 578T breast) was 6.69 µM and the TGI (HS 578T breast) was > 100 µM. The GI50 (IGROV1 ovarian) was 4.52 µM, the TGI (IGROV1 ovarian) was 17 µM and the GI50 (KM12 colon) was 2.21 µM. For the same compound, the TGI (KM12 colon) was 5.01 µM, the GI50 (LOX IMVI melanoma) was 1.64 µM and the TGI (LOX IMVI melanoma) was 3.01 µM. It also gave a GI50 (M14 melanoma) of 1.79 µM, a TGI (M14 melanoma) of 3.32 µM and a GI50 (MALME-3M melanoma) of 1.7 µM. For the same compound, the TGI (MALME-3M melanoma) was 3.07 µM, the GI50 (MDA-MB-231 breast) was 1.91 µM and the TGI (MDA-MB-231 breast) was 3.58 µM. For the same compound, the GI50 (MDA-MB-435) was 2.04 µM, the TGI (MDA-MB-435) was 4.11 µM and the GI50 (MDA-MB-468 breast) was 1.66 µM. It also gave a TGI (MDA-MB-468 breast) of 3.12 µM, a GI50 (MOLT-4 leukemia) of 2.25 µM and a TGI (MOLT-4 leukemia) of 6.05 µM. The GI50 (NCI-H226 lung) was 11.5 µM, the TGI (NCI-H226 lung) was 28 µM and the GI50 (NCI-H23 lung) was 3.15 µM. For the same compound, the TGI (NCI-H23 lung) was 10.2 µM, the GI50 (NCI-H460 lung) was 2.74 µM and the TGI (NCI-H460 lung) was 7.59 µM. The GI50 (NCI-H522 lung) was 1.64 µM, the TGI (NCI-H522 lung) was 3.51 µM and the GI50 (NCI/ADR-RES ovarian) was 5.84 µM. It also gave a TGI (NCI/ADR-RES ovarian) of 24 µM, a GI50 (OVCAR-3 ovarian) of 3.27 µM and a TGI (OVCAR-3 ovarian) of 16.6 µM. It also gave a GI50 (OVCAR-4 ovarian) of 5.06 µM, a TGI (OVCAR-4 ovarian) of 17.8 µM and a GI50 (OVCAR-5 ovarian) of 3.86 µM. For the same compound, the TGI (OVCAR-5 ovarian) was 13.4 µM, the GI50 (OVCAR-8 ovarian) was 4.12 µM and the TGI (OVCAR-8 ovarian) was 33.3 µM. For the same compound, the GI50 (PC-3 prostate) was 3.33 µM, the TGI (PC-3 prostate) was 14.8 µM and the GI50 (RPMI-8226 leukemia) was 2.37 µM. The TGI (RPMI-8226 leukemia) was 5.51 µM, the GI50 (RXF 393 renal) was 1.38 µM and the TGI (RXF 393 renal) was 3.48 µM. The GI50 (SF-268 CNS) was 9.09 µM, the TGI (SF-268 CNS) was 37.3 µM and the GI50 (SF-295 CNS) was 1.83 µM. For the same compound, the TGI (SF-295 CNS) was 3.55 µM, the GI50 (SF-539 CNS) was 1.68 µM and the TGI (SF-539 CNS) was 3.05 µM. The GI50 (SK-MEL-2 melanoma) was 1.83 µM, the TGI (SK-MEL-2 melanoma) was 3.8 µM and the GI50 (SK-MEL-28 melanoma) was 1.72 µM. It also gave a TGI (SK-MEL-28 melanoma) of 3.1 µM, a GI50 (SK-MEL-5 melanoma) of 1.7 µM and a TGI (SK-MEL-5 melanoma) of 3.07 µM. The GI50 (SK-OV-3 ovarian) was 15 µM, the TGI (SK-OV-3 ovarian) was 33.1 µM and the GI50 (SN12C renal) was 10.1 µM. It also gave a TGI (SN12C renal) of 22.8 µM, a GI50 (SNB-19 CNS) of 4.25 µM and a TGI (SNB-19 CNS) of 14.8 µM. It also gave a GI50 (SNB-75 CNS) of 11.2 µM, a TGI (SNB-75 CNS) of 29.2 µM and a GI50 (T-47D breast) of 3.05 µM. For the same compound, the TGI (T-47D breast) was 26.3 µM, the GI50 (TK-10 renal) was 3.53 µM and the TGI (TK-10 renal) was 12.1 µM. For the same compound, the GI50 (U251 CNS) was 2.08 µM, the TGI (U251 CNS) was 4.67 µM and the GI50 (UACC-257 melanoma) was 1.73 µM. For the same compound, the TGI (UACC-257 melanoma) was 3.21 µM, the GI50 (UACC-62 melanoma) was 1.73 µM and the TGI (UACC-62 melanoma) was 3.16 µM. For the same compound, the GI50 (UO-31 renal) was 1.86 µM and the TGI (UO-31 renal) was 4.65 µM.
